The test system of this experiment is non-small cell lung cancer. As to the kind of experiment: Tumor shrinkage measured radiologically in non-small cell lung cancer patients treated with Sorafenib. The format is in vivo, human. The conditions noted are these: non-small cell lung carcinoma; for mean % change in tumor size: measured radiologically.

Structures are written as SMILES.

The compound `CNC(=O)c1cc(Oc2ccc(NC(=O)Nc3ccc(Cl)c(C(F)(F)F)c3)cc2)ccn1` [Sorafenib] gave an average tumor shrinkage (patients who showed stable disease, Sorafenib treatment) of 5.1%. Moreover, the average tumor growth (patients whose disease progressed, Sorafenib treatment) was 20.6%. The “mean % change in tumor size” value reads like this: (patients with Progressive Disease in spite of Sorafenib treatment) 20.6%; (patients with Stable Disease on Sorafenib treatment) −5.1%.

The values above are taken from US20090221010A1, “Methods for Prediction and Prognosis of Cancer, and Monitoring Cancer Therapy” (priority 2005, published 2009).
